{"source": "PubChem BioAssay AID1963978", "about": "(Molecular Pharmacology Branch, DTP, NCI, 2024);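 also: spheroids exposed to agents for seven days before the viability read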", "tested_on": "616215-338-R-J1-PDC spheroids with HUVEC/MSC, viability", "assay": "Anticancer human tumor 616215-338-R-J1-PDC patient-derived colon adenocarcinoma cell line growth inhibition [PI3K]", "details": "for IC50: curve of first compound; for viability, T/C: stronger effect = lower value", "in_short": "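Targeted small molecules plus PI3K inhibitors, half-log dose series from Cmax (default top 10 microM), were applied to heterotypic spheroids of cancer cells with HUVEC and MSCs. Viability indicated growth inhibition.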", "data": [{"smiles": "Cn1nccc1Nc1nccc(-c2ccn(C(CO)c3ccc(Cl)c(F)c3)c(=O)c2)n1", "note": "(configuration not stated) + CC(Nc1ncnc2nc[nH]c12)c1cc2cccc(Cl)c2c(=O)n1-c1ccccc1", "values": [{"measurement": "IC50", "setting": "second compound 0.0316 µM", "value": 5.16, "unit": "µM"}, {"measurement": "IC50", "setting": "second compound 0.1 µM", "value": 5.57, "unit": "µM"}, {"measurement": "IC50", "setting": "second compound 0.316 µM", "value": 2.94, "unit": "µM"}, {"measurement": "IC50", "setting": "second compound 1 µM", "value": 5.74, "unit": "µM"}, {"measurement": "IC50", "setting": "second compound 3.16 µM", "value": 2.62, "unit": "µM"}, {"measurement": "IC50", "setting": "second compound 10 µM", "value": 1.53, "unit": "µM"}, {"measurement": "viability, T/C", "setting": "second compound 0.0316 µM, first compound 0.0316 µM", "value": 95.6, "unit": "%"}, {"measurement": "viability, T/C", "setting": "second compound 0.0316 µM, first compound 0.1 µM", "value": 89.2, "unit": "%"}, {"measurement": "viability, T/C", "setting": "second compound 0.0316 µM, first compound 0.316 µM", "value": 89.7, "unit": "%"}, {"measurement": "viability, T/C", "setting": "second compound 0.0316 µM, first compound 1 µM", "value": 68.1, "unit": "%"}, {"measurement": "viability, T/C", "setting": "second compound 0.0316 µM, first compound 3.16 µM", "value": 57, "unit": "%"}, {"measurement": "viability, T/C", "setting": "second compound 0.0316 µM, first compound 10 µM", "value": 42.7, "unit": "%"}, {"measurement": "viability, T/C", "setting": "second compound 0.1 µM, first compound 0.0316 µM", "value": 106, "unit": "%"}, {"measurement": "viability, T/C", "setting": "second compound 0.1 µM, first compound 0.1 µM", "value": 102, "unit": "%"}, {"measurement": "viability, T/C", "setting": "second compound 0.1 µM, first compound 0.316 µM", "value": 84.3, "unit": "%"}, {"measurement": "viability, T/C", "setting": "second compound 0.1 µM, first compound 1 µM", "value": 77.3, "unit": "%"}, {"measurement": "viability, T/C", "setting": "second compound 0.1 µM, first compound 3.16 µM", "value": 65.4, "unit": "%"}, {"measurement": "viability, T/C", "setting": "second compound 0.1 µM, first compound 10 µM", "value": 36.5, "unit": "%"}, {"measurement": "viability, T/C", "setting": "second compound 0.316 µM, first compound 0.0316 µM", "value": 101, "unit": "%"}, {"measurement": "viability, T/C", "setting": "second compound 0.316 µM, first compound 0.1 µM", "value": 102, "unit": "%"}, {"measurement": "viability, T/C", "setting": "second compound 0.316 µM, first compound 0.316 µM", "value": 80.6, "unit": "%"}, {"measurement": "viability, T/C", "setting": "second compound 0.316 µM, first compound 1 µM", "value": 67.1, "unit": "%"}, {"measurement": "viability, T/C", "setting": "second compound 0.316 µM, first compound 3.16 µM", "value": 50.8, "unit": "%"}, {"measurement": "viability, T/C", "setting": "second compound 0.316 µM, first compound 10 µM", "value": 29.9, "unit": "%"}, {"measurement": "viability, T/C", "setting": "second compound 1 µM, first compound 0.0316 µM", "value": 109, "unit": "%"}, {"measurement": "viability, T/C", "setting": "second compound 1 µM, first compound 0.1 µM", "value": 98.6, "unit": "%"}, {"measurement": "viability, T/C", "setting": "second compound 1 µM, first compound 0.316 µM", "value": 71.8, "unit": "%"}, {"measurement": "viability, T/C", "setting": "second compound 1 µM, first compound 1 µM", "value": 72.9, "unit": "%"}, {"measurement": "viability, T/C", "setting": "second compound 1 µM, first compound 3.16 µM", "value": 61.2, "unit": "%"}, {"measurement": "viability, T/C", "setting": "second compound 1 µM, first compound 10 µM", "value": 40.6, "unit": "%"}, {"measurement": "viability, T/C", "setting": "second compound 3.16 µM, first compound 0.0316 µM", "value": 99.1, "unit": "%"}, {"measurement": "viability, T/C", "setting": "second compound 3.16 µM, first compound 0.1 µM", "value": 105, "unit": "%"}, {"measurement": "viability, T/C", "setting": "second compound 3.16 µM, first compound 0.316 µM", "value": 93.4, "unit": "%"}, {"measurement": "viability, T/C", "setting": "second compound 3.16 µM, first compound 1 µM", "value": 71.3, "unit": "%"}, {"measurement": "viability, T/C", "setting": "second compound 3.16 µM, first compound 3.16 µM", "value": 47.1, "unit": "%"}, {"measurement": "viability, T/C", "setting": "second compound 3.16 µM, first compound 10 µM", "value": 28, "unit": "%"}, {"measurement": "viability, T/C", "setting": "second compound 10 µM, first compound 0.0316 µM", "value": 111, "unit": "%"}, {"measurement": "viability, T/C", "setting": "second compound 10 µM, first compound 0.1 µM", "value": 99, "unit": "%"}, {"measurement": "viability, T/C", "setting": "second compound 10 µM, first compound 0.316 µM", "value": 72.6, "unit": "%"}, {"measurement": "viability, T/C", "setting": "second compound 10 µM, first compound 1 µM", "value": 57.8, "unit": "%"}, {"measurement": "viability, T/C", "setting": "second compound 10 µM, first compound 3.16 µM", "value": 39.7, "unit": "%"}, {"measurement": "viability, T/C", "setting": "second compound 10 µM, first compound 10 µM", "value": 12.7, "unit": "%"}]}]}
